US8273717B2, “Inhibitor for perioperative blood sugar elevation” (Otsuka Pharmaceutical Factory, Inc., priority 2003, dated 2012)

Legend:
Type in all cases: in vivo, rat
blood sugar level [1] = assay: Test Example 6: effect of branched amino acids in blood sugar elevation model by glucose (blood sugar level); conditions: Pentobarbital anesthesia; for time at which blood sugar level reached the maximum (peak): after the start of test, 5 weight % glucose-1.8% amino acid i.v.
Description: A blood sugar elevation model was made by intravenous administration of glucose to the living body, and the effect was examined with parallel administration of leucine, isoleucine and valine in the above-mentioned model.
(§1) Rats were pre-treated in a similar manner to Test Example 4, and anesthesia in the rats was maintained for 3 hours by intravenous continuous administration of Pentobarbital in a similar manner to Test Example 4. […] Blood was collected (100 μL) through the catheter for administration of aqueous amino acid solution before the start of administration, 30 minutes, 90 minutes, and 180 minutes after the start of administration respectively. And then, the blood sugar level and serum insulin value were determined according to Test Example 1.

blood sugar level [2] = assay: Test Example 8: inhibition of blood sugar elevation by oral isoleucine during sugar tolerance, non-anesthesia vs anesthesia; conditions: 0.5 g/10 mL/kg isoleucine orally, 3 g glucose/kg orally 30 minutes later
Description: Non-anesthesia group: rats under overnight fasting conditions were divided into groups by body weight, blood was collected from a tail vein (Pre Value). To a control group and a sample solution group was orally administered 0.5 g/10 mL/kg of OTSUKA distilled water (water for injection; manufactured by OTSUKA PHAMACEUTICAL FACTORY, INC.) and 0.5 g/10 mL/kg of aqueous isoleucine solution, respectively. 50% OTSUKA sugar solution (glucose injection (glucose 100 g/200 mL); manufactured by OTSUKA PHAMACEUTICAL FACTORY, INC.; hereinafter also simply called glucose solution) was administered orally so as to be 3 g glucose/kg 30 minutes after the administration of the sample solution. Blood was collected from the tail vein 30 minutes, 60 minutes, 90 minutes, and 120 minutes after the start of sugar solution administration, and the blood sugar level was determined. Each blood sugar level was considered as 30 minutes value, 60 minutes value, 90 minutes value, and 120 minutes value, respectively in the non-anesthesia group.
Anesthesia group: rats under overnight fasting conditions were divided into groups by body weight, blood was collected from a tail vein (Pre Value). […] The blood sugar level of the blood collected from the tail vein 30 minutes, 60 minutes, 90 minutes, and 120 minutes after the administration of sugar solution was determined. […]

blood sugar level [3] = assay: Test Example 7: blood sugar decrease by oral administration of leucine, anesthesia vs non-anesthesia; conditions: 0.3 g/10 mL/kg leucine suspension orally
Description: Non-anesthesia group: rats under overnight fasting conditions were divided into groups by body weight, and blood was collected from a tail vein (Pre Value). Shortly after that, 10 mL/kg of distilled water was orally administered to control group, and 0.3 g/10 mL/kg of leucine suspension to a sample solution group. Blood was collected from the tail vein 90 minutes after the administration of distilled water and the sample solution (90 minutes value).
Anesthesia group: rats under overnight fasting conditions were divided into groups by body weight, and blood was collected from a tail vein (Pre Value). After the blood collection, 10 mL/kg of distilled water was orally administered to a control group, and 0.3 g/10 mL/kg of leucine suspension to a sample solution group. Saflow indwelling needle was kept in the tail vein 30 minutes after the sample solution was administered. After that, anesthesia was introduced by rapid intravenous administration of 30 mg/kg Pentobarbital Sodium. Thereafter, a gastight syringe disposed in micro syringe pump and an indwelling needle were connected through an extension tube, and anesthesia was maintained by continuous intravenous administration of 30 mg/kg/hr. Blood was collected from the tail vein opposite to that wherein the indwelling needle was kept 60 minutes after introduction of anesthesia (90 minutes value).
In addition, blood was collected in a tube for hematocrit determination. After collected blood was centrifuged, plasma fraction was recovered and the blood sugar level was determined according to Test Example 1.
The changed value of the blood sugar level was calculated by deducting Pre value of each rat plasma from 90 minutes value of each rat plasma.

serum insulin value = assay: Test Example 6: serum insulin value with glucose+leucine
Description: The serum insulin value was determined by ELISA Method (manufactured by Mevcodia Co.).
as §1

## CC[C@H](C)[C@H](N)C(=O)O [isoleucine]
Blood sugar level [1]
  time at which blood sugar level reached the maximum (peak): 30 min
Blood sugar level [2]; anesthesia group (Somnopentyl i.p.)
  area under the blood sugar level curve (AUC, 0-120 min) compared to control group: significant decrease
Blood sugar level [2]; non-anesthesia group
  area under the blood sugar level curve (AUC, 0-120 min) compared to control group: decreased compared to that of the control group

## CC(C)C[C@H](N)C(=O)O [leucine]
Blood sugar level [1]; 90 and 180 minutes after the start of the test
  blood sugar level compared with glucose administration group: lower significantly
Blood sugar level [1]
  time at which blood sugar level reached the maximum (peak): 30 min
Blood sugar level [3]
  decrease extent of blood sugar level in the anesthesia group compared to non-anesthesia group: 2.7 times
Blood sugar level [3]; anesthesia group (Pentobarbital Sodium)
  changed value of the blood sugar level (90 minutes value minus Pre value): decrease in blood sugar level was recognized
Blood sugar level [3]; non-anesthesia group
  changed value of the blood sugar level (90 minutes value minus Pre value): decrease in blood sugar level was recognized
Serum insulin value; 30 minutes
  increase of serum insulin value under anesthesia relative to non-anesthesia: 1.7 times
Serum insulin value; 90 minutes
  increase of serum insulin value under anesthesia relative to non-anesthesia: 9.9 times
Serum insulin value; 180 minutes
  increase of serum insulin value under anesthesia relative to non-anesthesia: 16.2 times
